Key:
TOV21G cells = test: Cell viability assay (CellTiter-Glo, 72 h), GI50; type: cell-based; settings: Homo sapiens, Fig. 6a
Protocol: (§1) Cell viability was assessed using the CellTiter-Glo luminescent cell viability assay (Vazyme, DD1101) following the manufacturer’s instructions. Briefly, 5000 cells per well were seeded into a 96-well white bottom permeable plate. Different concentrations of drugs were added to each well. After 72 h of treatment, a mixture of CellTier reagent and serum-free culture medium was prepared at a 1:1 ratio, and 100 μL of the mixture was added to each well. After incubation at 37 °C for 15 min, the luminescence was measured using a microplate reader (Synergy H1, Biotek). All the experiments were conducted in triplicate. Cell viability (relative luminescence) was defined as the luminescence of the drug treatment relative to that of the vehicle control.

NCI-H596 cells = test: Cell viability assay (CellTiter-Glo, 72 h), GI50; type: cell-based; settings: Homo sapiens, Fig. 6a
Protocol: as §1

RMG-I cells = test: Cell viability assay (CellTiter-Glo, 72 h), GI50; type: cell-based; settings: Homo sapiens
Protocol: as §1

MCF7 cells = test: Cell viability assay (CellTiter-Glo, 72 h), GI50; type: cell-based; settings: Homo sapiens, Fig. 6a
Protocol: as §1

A549 cells = test: Cell viability assay (CellTiter-Glo, 72 h), GI50; type: cell-based; settings: Homo sapiens, A549, 72 h
Protocol: as §1

BT-549 cells = test: Cell viability assay (CellTiter-Glo, 72 h), GI50; type: cell-based; settings: Homo sapiens, BT-549, 72 h
Protocol: as §1

[1] = system: H3K9ac and H3K27ac in TFK1 cells; test: Immunoblot of H3K9ac and H3K27ac; type: cell-based, human; settings: prolonged romidepsin treatment, n = 3 biological replicates, Fig. 3f
Protocol: For immunoblotting, cells were washed with ice-cold PBS and lysed in RIPA lysis buffer (supplemented with protease inhibitor and phosphatase inhibitor cocktails Ⅱ and Ⅲ) for 15 min at 4 °C. The protein concentrations of the samples were normalized using a BCA protein assay kit (Thermo). Immunoblots were performed with specific primary antibodies, followed by the addition of a fluorescein-conjugated secondary antibody, after which the proteins were detected via an Odyssey fluorescence scanner (LI-COR).

TFK1 cells [2] = settings: PFKL-knockout (sgPFKL) TFK1 cells and PFKL-overexpressing (ovPFKL) HuCCT1 cells; LC-MS/MS of cell lysates; n=3 biological replicates; Supplementary Fig. 5f
TFK1 cells [3] = test: Cell viability assay (CellTiter-Glo, 72 h), GI50; type: cell-based, human; settings: Homo sapiens
Protocol: as §1

[4] = romidepsin combined with NS or peptide, Fig. 6c

SMILES: C/C=C1\NC(=O)[C@H]2CSSCC/C=C/[C@H](CC(=O)N[C@H](C(C)C)C(=O)N2)OC(=O)[C@H](C(C)C)NC1=O [Romidepsin, romidepsin]
- GI50 (TOV21G cells): 0.36 nM
- GI50 (NCI-H596 cells): 0.12 nM
- GI50 (RMG-I cells; Fig. 6a): 5.71 nM
- GI50 (RMG-I cells; [4]): 9.48 nM
- GI50 (MCF7 cells): 0.56 nM
- GI50 (A549 cells; Fig. 6a): 5.87 nM
- GI50 (A549 cells; [4]): 7.62 nM
- GI50 (BT-549 cells; BT549, romidepsin combined with NS or peptide, Fig. 6c): 16.2 nM
- GI50 (BT-549 cells; BT-549, Fig. 6a): 13.7 nM
- acetylation at the H3K9 and K27 histone sites [1]: gradual increase in acetylation
- cellular uptake of romidepsin with differential expression of PFKL (TFK1 cells [2]): did not affect the cellular uptake

SMILES: Cc1[nH]c2ccccc2c1CCNCc1ccc(/C=C/C(=O)NO)cc1 [Panobinostat, panobinostat]
- GI50 (TFK1 cells [3]; TFK1, CellTiter-Glo, Fig. 1b): 62.7 nM
- GI50 (TFK1 cells [3]; TFK1 after interference with LHCGR si-1, Fig. 1f): 31 nM
- GI50 (TFK1 cells [3]; TFK1 after interference with LHCGR si-2, Fig. 1f): 28.3 nM
- GI50 (TFK1 cells [3]; TFK1 after interference with NFIA si-1, Fig. 1f): 42.7 nM
- GI50 (TFK1 cells [3]; TFK1 after interference with NFIA si-2, Fig. 1f): 46.6 nM
- GI50 (TFK1 cells [3]; TFK1 after interference with PFKFB1 si-1, Fig. 1f): 45.1 nM
- GI50 (TFK1 cells [3]; TFK1 after interference with PFKFB1 si-2, Fig. 1f): 60.6 nM
- GI50 (TFK1 cells [3]; TFK1 after interference with PFKL si-1, Fig. 1f): 605 nM
- GI50 (TFK1 cells [3]; TFK1 after interference with PFKL si-2, Fig. 1f): 402 nM
- GI50 (TFK1 cells [3]; TFK1 expressing sgNC, Fig. 1g): 53.9 nM
- GI50 (TFK1 cells [3]; TFK1 expressing sgPFKL-1, Fig. 1g): 964 nM
- GI50 (TFK1 cells [3]; TFK1 expressing sgPFKL-2, Fig. 1g): 644 nM
- GI50 (TFK1 cells [3]; TFK1 siNC, Fig. 1f): 40.1 nM

Reference: PMC12518634, “The noncanonical function of liver-type phosphofructokinase potentiates the efficacy of HDAC inhibitors in cancer” (Signal Transduction and Targeted Therapy, 2025)
